Where a SMILES comes first, the peptide text is derived from it. [ ]: non-standard residue; d: D form. pY = N[C@@H](Cc1ccc(OP(=O)(O)O)cc1)C(=O)O
Assays:
PLCγ1 = biological target: T1, PLCγ1 (Mus musculus, UniProt Q62077); test: Inhibition of PLCγ1 activation: western blot of p-PLCγ1 (pY783)/PLCγ1 in hippocampal lysates after intraperitoneal injection; type: in vivo; settings: single dose 20 mg/kg i.p., wild type mice, hippocampal lysates at 3 h; dose dependent (10 or 20 mg/kg)
T1 construct: from tissue; host or cells: hippocampus of adult wild type mice
T1 sequence (Q62077 1-1302): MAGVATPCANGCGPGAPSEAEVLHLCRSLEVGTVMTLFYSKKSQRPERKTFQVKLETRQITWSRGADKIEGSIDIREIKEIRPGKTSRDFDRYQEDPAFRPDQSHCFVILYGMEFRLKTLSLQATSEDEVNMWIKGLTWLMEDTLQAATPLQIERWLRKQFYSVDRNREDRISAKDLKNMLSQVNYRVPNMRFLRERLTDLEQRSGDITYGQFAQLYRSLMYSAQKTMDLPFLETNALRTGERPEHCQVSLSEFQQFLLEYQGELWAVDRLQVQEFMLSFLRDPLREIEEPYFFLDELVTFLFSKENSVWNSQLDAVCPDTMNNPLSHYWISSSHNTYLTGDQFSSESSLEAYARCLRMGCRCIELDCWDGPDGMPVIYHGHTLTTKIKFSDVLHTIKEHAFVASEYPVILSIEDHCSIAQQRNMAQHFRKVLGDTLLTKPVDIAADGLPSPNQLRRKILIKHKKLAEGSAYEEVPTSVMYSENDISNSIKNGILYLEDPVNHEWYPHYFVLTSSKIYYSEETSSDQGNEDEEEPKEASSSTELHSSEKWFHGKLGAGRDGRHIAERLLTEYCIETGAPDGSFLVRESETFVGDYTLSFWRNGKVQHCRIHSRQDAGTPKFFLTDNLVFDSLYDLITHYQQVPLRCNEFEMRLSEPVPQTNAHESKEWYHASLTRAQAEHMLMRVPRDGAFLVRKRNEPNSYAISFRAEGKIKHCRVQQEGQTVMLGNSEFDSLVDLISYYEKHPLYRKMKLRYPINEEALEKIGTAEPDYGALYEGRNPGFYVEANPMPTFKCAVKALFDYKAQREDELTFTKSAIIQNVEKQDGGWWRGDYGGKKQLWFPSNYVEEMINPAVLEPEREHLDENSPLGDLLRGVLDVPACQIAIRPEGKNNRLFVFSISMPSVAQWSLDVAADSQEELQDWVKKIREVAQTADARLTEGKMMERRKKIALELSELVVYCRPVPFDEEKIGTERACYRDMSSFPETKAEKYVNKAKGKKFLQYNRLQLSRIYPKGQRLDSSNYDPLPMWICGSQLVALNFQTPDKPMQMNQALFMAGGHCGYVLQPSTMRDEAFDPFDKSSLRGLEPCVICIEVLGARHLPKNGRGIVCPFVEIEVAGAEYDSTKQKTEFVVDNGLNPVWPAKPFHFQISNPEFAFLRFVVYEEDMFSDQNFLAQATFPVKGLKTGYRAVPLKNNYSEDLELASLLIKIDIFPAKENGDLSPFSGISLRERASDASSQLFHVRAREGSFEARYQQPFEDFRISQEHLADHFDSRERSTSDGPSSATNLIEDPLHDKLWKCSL
Description: (§1) Determining whether pY816 may be beneficial in epileptic animals required modification of our study of the kainic acid (KA)-status epilepticus (SE) model. To more closely mimic the clinical scenario in which patients seek medical attention for established TLE, we induced KA-SE and then conducted video-EEG recordings to detect spontaneous recurrent seizures during baseline periods of two to four weeks until they developed TLE prior to treating with pY816 peptide. In contrast to just three days of treatment with pY816 deployed in previous studies, we sought a more prolonged treatment with pY816 for the current experiments, namely two weeks. The intravenous route of administration used for three days in the prior studies was not feasible for two weeks, leading us to ask whether treatment via intraperitoneal route could inhibit activation of PLCγ1. We used the phosphorylation of residue Y783 of PLCγ1 detected on western blot of brain lysates as a surrogate measure of PLCγ1 activation.
Hippocampal lysates (30-40 μg) were subjected to SDS_PAGE and western blotting. The blots were probed with antibodies specifically recognizing p-PLCγ1 (pY783) (a surrogate for activation of PLCγ1) and PLCγ1.

[1] = test system: epileptic animals (KA-SE); test: Spontaneous recurrent seizures (video-EEG) after kainic acid-induced status epilepticus (KA-SE model of TLE); type: in vivo, mice; settings: 20 mg/kg IP twice daily for two weeks
Description: as §1
Having verified that intraperitoneal administration of pY816 inhibited PLCγ1 activation, we then asked whether treatment with pY816 initiated after onset of epilepsy and continued for two weeks would reduce the severity of epilepsy or even induce a remission. Towards that end, we induced KA-SE but then followed the animals for several weeks until they developed TLE as assessed by detection of SRS in continuous video-EEG recordings. We quantified the number of SRS in each animal by blinded review of video-EEG recordings during three distinct two week epochs (FIG. 8): a) baseline; b) treatment with pY816 (n=9) or Scr control (n=6), 20 mg/kg IP twice daily for two weeks (on Tx); c) following termination of treatment (Post Tx). As noted in FIG. 8, following induction of status epilepticus induced by infusion of kainic acid into amygdala (Gu et al 2015) animals underwent continuous video-EEG recording to detect spontaneous recurrent seizures. Following baseline recording of two weeks, animals were treated with either pY816 or Scr control peptide (20 mg/kg) twice daily for two weeks (Day 15-28). Video-EEG recording continued for two weeks following termination of treatment (Post-treatment).
Results are shown in FIG. 9, where each symbol represents the number of seizures experienced by a given animal during Baseline, Treatment (Tx), or Post-treatment (Post Tx) periods. Horizontal bars designate median. Treatment (Tx) consisted of either pY816 or Scr control given 20 mg/kg twice daily for two weeks. Note that seizure detection was performed by analyses of video-EEG recordings by two blinded investigators.
Antiseizure drugs in current clinical use provide symptomatic relief of seizures in many but not all patients, but seizures typically recur upon cessation of the drug. To verify that similar findings occur in our animal model, we tested the effect of an antiseizure drug in current clinical use in our model (carbamazepine). We infused additional animals with KA and assessed the occurrence of SRS with continuous video-EEG monitoring for several weeks. […] Thus, like TLE in humans, continuous treatment with an antiseizure drug suppresses seizures, yet seizures recur upon discontinuation of treatment.

CC[C@H](C)[C@H](NC(=O)[C@H](CC(=O)O)NC(=O)[C@H](CC(C)C)NC(=O)[C@H](Cc1ccc(OP(=O)(O)O)cc1)NC(=O)[C@@H](NC(=O)[C@@H]1CCCN1C(=O)[C@H](CO)NC(=O)[C@H](C)NC(=O)[C@H](CCCCN)NC(=O)[C@H](C)NC(=O)[C@H](CC(C)C)NC(=O)[C@H](CC(N)=O)NC(=O)[C@H](CCC(N)=O)NC(=O)[C@H](CC(C)C)NC(=O)[C@H](CCCNC(=N)N)NC(=O)[C@H](CCCNC(=N)N)NC(=O)[C@H](CCCNC(=N)N)NC(=O)[C@H](CCC(N)=O)NC(=O)[C@H](CCCNC(=N)N)NC(=O)[C@H](CCCNC(=N)N)NC(=O)[C@H](CCCCN)NC(=O)[C@H](CCCCN)NC(=O)[C@H](CCCNC(=N)N)NC(=O)CNC(=O)[C@@H](N)Cc1ccc(O)cc1)C(C)C)C(=O)O [pY816] (H-YGRKKRRQRRRLQNLAKASPV[pY]LDI-OH)
Inhibition of PLCγ1 activation (reduction of p-PLCγ1 (pY783)/PLCγ1 ratio versus Scr) (PLCγ1): ~60% | Overt untoward effects during or following treatment [1]: No overt untoward effects were detected

From patent US20190269752A1, “Methods for the Prevention or Treatment of Epilepsy” (Duke University, priority 2018, published 2019)
